Measurements as given in paper PMC4274664, “Arabidopsis cytosolic acyl-CoA-binding proteins ACBP4, ACBP5 and ACBP6 have overlapping but distinct roles in seed development” (Bioscience Reports, 2014).
Read-outs that look alike come from different tables or passages of the source.

How the values were obtained:
rAtACBP4 = molecular target: T1, rAtACBP4 (Arabidopsis thaliana, UniProt Q9MA55); test: ITC of acyl-CoA esters binding to rAtACBP4; conditions: for n: mean of three experiments±S.D., stoichiometry of ligand-to-protein binding; for ΔG: in kcal/mol
T1 sequence (Q9MA55 1-668): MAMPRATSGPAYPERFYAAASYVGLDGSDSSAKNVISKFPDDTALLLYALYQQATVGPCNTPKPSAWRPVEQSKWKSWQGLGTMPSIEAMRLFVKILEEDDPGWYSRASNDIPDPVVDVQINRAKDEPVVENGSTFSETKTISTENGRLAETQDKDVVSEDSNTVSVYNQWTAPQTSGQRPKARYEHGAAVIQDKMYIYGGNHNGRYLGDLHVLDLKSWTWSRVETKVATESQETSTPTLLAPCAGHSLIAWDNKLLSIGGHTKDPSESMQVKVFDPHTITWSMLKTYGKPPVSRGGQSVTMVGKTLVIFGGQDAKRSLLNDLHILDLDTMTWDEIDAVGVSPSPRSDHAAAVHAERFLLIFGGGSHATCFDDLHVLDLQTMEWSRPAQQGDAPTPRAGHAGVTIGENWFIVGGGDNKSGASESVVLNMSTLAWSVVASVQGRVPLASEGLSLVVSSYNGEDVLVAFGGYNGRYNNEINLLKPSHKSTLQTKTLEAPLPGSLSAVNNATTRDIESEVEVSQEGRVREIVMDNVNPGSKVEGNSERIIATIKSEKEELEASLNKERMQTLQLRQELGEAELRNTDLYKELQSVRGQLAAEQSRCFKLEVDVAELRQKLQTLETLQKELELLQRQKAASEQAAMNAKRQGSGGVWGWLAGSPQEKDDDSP
Description: (§1) The protein expression plasmids containing full-length AtACBP4 and AtACBP5 cDNA were previously constructed in the vector pRSETB (Invitrogen) as pAT184 and pAT185, respectively. Recombinant (His)6-AtACBP4 and (His)6-AtACBP5 proteins (rAtACBP4 and rAtACBP5) were expressed in Escherichia coli, purified and refolded according to Leung et al.. The coding sequence of AtACBP6 was amplified by PCR with primer pairs ACBP-F1 and ACBP-R1 and cloned into expression vector pEXP5-NT/TOPO (Invitrogen) to generate plasmid pEXP-ACBP6. Sequences of primers are listed in Supplementary Table S1. Recombinant (His)6-AtACBP6 (rAtACBP6) was expressed in E. coli and purified following Chye. The three recombinant proteins were dialysed in 10 mM sodium phosphate buffer (pH 7.0). Protein concentrations were determined by the standard Bradford assay (Bio-Rad).
(§2) Calorimetric titration was performed with a MicroCal iTC200 system (GE Healthcare) at 30°C. Long-chain acyl-CoA esters (Avanti Polar Lipids, Inc.) were dissolved in 10 mM sodium phosphate buffer (pH 7.0) to a final concentration of 0.25, 0.5 and 1 mM. The solution was degassed and loaded into a syringe, while 15 μM rAtACBP6, 6 μM rAtACBP4 or 60 μM rAtACBP5, was placed into the sample cell. For all titrations, 1.8 μl ligand was injected into the sample cell at 150 s intervals with a stirring speed of 1000 rpm. The titrations were completed after 20 injections. All data were collected automatically, and non-specific heat effects were estimated and corrected after saturation following the instructions of the manufacturer. Raw data were integrated and analysed using the Origin v.7.0 software accompanying the calorimeter.

rAtACBP5 = molecular target: T2, rAtACBP5 (Arabidopsis thaliana, UniProt Q8RWD9); test: ITC of acyl-CoA esters binding to rAtACBP5; conditions: for n: mean of three experiments±S.D., stoichiometry of ligand-to-protein binding; for ΔG: in kcal/mol
T2 sequence (Q8RWD9 1-648): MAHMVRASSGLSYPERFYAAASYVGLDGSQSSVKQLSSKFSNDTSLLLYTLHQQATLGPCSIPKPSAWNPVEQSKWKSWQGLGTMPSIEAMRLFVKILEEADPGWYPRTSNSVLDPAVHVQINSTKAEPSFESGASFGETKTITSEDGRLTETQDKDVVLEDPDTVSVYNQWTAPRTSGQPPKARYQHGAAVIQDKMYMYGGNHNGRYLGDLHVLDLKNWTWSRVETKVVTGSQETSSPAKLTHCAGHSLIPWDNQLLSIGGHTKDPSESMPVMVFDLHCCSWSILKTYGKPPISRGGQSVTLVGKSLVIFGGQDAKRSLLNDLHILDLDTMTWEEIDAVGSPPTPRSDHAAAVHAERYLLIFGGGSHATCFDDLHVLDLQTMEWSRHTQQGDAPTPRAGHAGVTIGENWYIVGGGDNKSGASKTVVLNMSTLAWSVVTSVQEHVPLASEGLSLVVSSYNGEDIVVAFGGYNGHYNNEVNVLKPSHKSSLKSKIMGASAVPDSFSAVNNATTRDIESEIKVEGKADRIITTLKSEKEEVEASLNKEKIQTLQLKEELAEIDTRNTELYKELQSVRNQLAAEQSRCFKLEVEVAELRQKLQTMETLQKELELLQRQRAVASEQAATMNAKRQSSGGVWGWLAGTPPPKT
Description: as §1, §2

rAtACBP6 = molecular target: T3, rAtACBP6 (Arabidopsis thaliana, UniProt P57752); test: ITC of acyl-CoA esters binding to rAtACBP6; conditions: for n: mean of three experiments±S.D., stoichiometry of ligand-to-protein binding; for ΔG: in kcal/mol
T3 construct: made in house; host or cells: Escherichia coli
T3 sequence (P57752 1-92): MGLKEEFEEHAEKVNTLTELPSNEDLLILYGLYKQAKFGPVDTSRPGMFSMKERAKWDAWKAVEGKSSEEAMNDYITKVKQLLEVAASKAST
Description: as §1, §2

yeast ACBP = molecular target: yeast ACBP; design: method as in PMID 8093000; conditions: read-out: binding affinity; cited from earlier work
10-kDa bovine ACBP = molecular target: 10-kDa bovine ACBP; design: method as in PMID 8166635; conditions: read-out: binding affinity; cited from earlier work
[1] = test system: Arabidopsis seeds (Col-0 and acbp double/triple mutants); test: Seed germination under ABA treatment; type: in vivo; conditions: for seeds germinated / germination rate: 0.2 μM ABA, within 2 days
Method: Seeds of wild-type Arabidopsis Col-0 were purchased from the ABRC (Arabidopsis Biological Resource Center). The double and triple mutants of AtACBP4, AtACBP5 and AtACBP6 were generated by crossing the respective single mutants. To sterilize Arabidopsis seeds, a solution containing 20% bleach and 0.1% (v/v) Tween 20 was used. Seeds were subjected to 20 min vigorous shaking in this solution, washed six times in distilled water, and then spread on MS (Murashige and Skoog) medium (Sigma-Aldrich) containing 2% (w/v) sucrose, and 0, 0.2 or 0.4 μM ABA (abscisic acid). After 4°C stratification for 2 days, the plates were placed under 16 h-light/8 h-dark cycles (22°C) in a tissue culture room. The rates of seed germination were scored when radicle protrusion occurred.

[2] = ITC, 30°C, 10 mM sodium phosphate buffer pH 7.0
[3] = ITC, 30°C, 10 mM sodium phosphate buffer pH 7.0, mean of three±S.D.
[4] = ITC, 30°C, 10 mM sodium phosphate buffer pH 7.0, mean of three±S.D., read-out: Kd

Row | Structure (SMILES) | ΔS (rAtACBP4; [2]) | n (rAtACBP4; [2]) | ΔH (rAtACBP4; [3]) [kcal/mol] | ΔG (rAtACBP4; [3]) | ΔS (rAtACBP5; [2]) | n (rAtACBP5; [2]) | ΔH (rAtACBP5; [3]) [kcal/mol] | ΔG (rAtACBP5; [3]) | ΔS (rAtACBP6; [2]) | n (rAtACBP6; [2]) | ΔH (rAtACBP6; [3]) [kcal/mol] | ΔG (rAtACBP6; [3]) | Kd (rAtACBP4; [4]) [µM] | Kd (rAtACBP5; [4]) [µM] | Kd (rAtACBP6; [4]) [µM] | further results
1 | CCCCCCCCCCCCCC(=O)SCCNC(=O)CCNC(=O)[C@H](O)C(C)(C)COP(=O)(O)OP(=O)(O)OC[C@H]1O[C@@H](n2cnc3c(N)ncnc32)[C@H](O)[C@@H]1OP(=O)(O)O [14:0] | -158 cal/(mol·K) | 1 | -53.5 ± 6.9 | −5.8±0.1 | 7.7 cal/(mol·K) | 0.9 | -3.7 ± 1.2 | −6.1±0.0 | -4.6 cal/(mol·K) | 1 | -11.6 ± 1.4 | −10.2±0.2 | – | – | – | Kd (rAtACBP4): 65.3 ± 22.6 µM; Kd (rAtACBP5): 41.9 ± 2.2 µM; Kd (rAtACBP6): 0.0387 ± 0.0045 µM
2 | CCCCCCCCCCCCCCCC(=O)SCCNC(=O)CCNC(=O)[C@H](O)C(C)(C)COP(=O)(O)OP(=O)(O)OC[C@H]1O[C@@H](n2cnc3c(N)ncnc32)[C@H](O)[C@@H]1OP(=O)(O)O [16:0, palmitoyl-CoA] | -236 cal/(mol·K) | 1 | -77.4 ± 2.5 | −6.1±0.2 | -16.7 cal/(mol·K) | 0.9 | -11.2 ± 0.5 | −6.2±0.0 | -11.5 cal/(mol·K) | 1 ± 0.1 | -13.7 ± 2.4 | −10.2±0.0 | 23.5 ± 27.1 | 35.7 ± 1 | 0.0359 ± 0.0084 | weaker binding than armadillo ACBP (rAtACBP4; rAtACBP4 versus armadillo ACBP): 1000 fold; Kd (yeast ACBP): 0.0055 µM; weaker binding than armadillo ACBP (rAtACBP5; rAtACBP5 versus armadillo ACBP): 1000 fold; Kd (10-kDa bovine ACBP): 4.5 pM
3 | CCCCCCCCCCCCCCCCCC(=O)SCCNC(=O)CCNC(=O)[C@H](O)C(C)(C)COP(=O)(O)OP(=O)(O)OC[C@H]1O[C@@H](n2cnc3c(N)ncnc32)[C@H](O)[C@@H]1OP(=O)(O)O [18:0] | -0.6 cal/(mol·K) | 1.1 ± 0.1 | -8.9 ± 1 | −8.7±1.0 | -37.2 cal/(mol·K) | 1 | -17.4 ± 0.1 | −6.2±0.0 | -6.6 cal/(mol·K) | 1 | -12 ± 2.5 | −10.0±0.3 | 2.7 ± 1.6 | 35.4 ± 1.4 | 0.0606 ± 0.0024 | –
4 | CCCCCCCC/C=C\CCCCCCCC(=O)SCCNC(=O)CCNC(=O)[C@H](O)C(C)(C)COP(=O)(O)OP(=O)(O)OC[C@H]1O[C@@H](n2cnc3c(N)ncnc32)[C@H](O)[C@@H]1OP(=O)(O)O [18:1, oleoyl-CoA] | -4.3 cal/(mol·K) | 2.1 | -6.9 ± 0.1 | −5.6±0.0 | -1.8 cal/(mol·K) | 0.9 | -6.2 ± 0.2 | −5.7±0.0 | 11.4 cal/(mol·K) | 1.9 ± 0.1 | -6.7 ± 3.8 | −10.2±0.1 | 95.2 | 74.4 ± 3.5 | 0.0453 ± 0.0043 | n (stoichiometry of ligand-to-protein binding) (rAtACBP6; ITC): 1.9
5 | CCCCC/C=C\C/C=C\CCCCCCCC(=O)SCCNC(=O)CCNC(=O)[C@H](O)C(C)(C)COP(=O)(O)OP(=O)(O)OC[C@H]1O[C@@H](n2cnc3c(N)ncnc32)[C@H](O)[C@@H]1OP(=O)(O)O [18:2, linoleoyl-CoA] | -224 cal/(mol·K) | 1 | -73.7 ± 2.6 | −5.8±0.2 | -14.7 cal/(mol·K) | 1 | -10.2 ± 0.2 | −5.8±0.0 | -6.7 cal/(mol·K) | 1.1 | -12.3 ± 1.4 | −10.2±0.2 | 73.8 ± 0.3 | 64.1 | 0.0364 ± 0.0049 | –
6 | CC/C=C\C/C=C\C/C=C\CCCCCCCC(=O)SCCNC(=O)CCNC(=O)[C@H](O)C(C)(C)COP(=O)(O)OP(=O)(O)OC[C@H]1O[C@@H](n2cnc3c(N)ncnc32)[C@H](O)[C@@H]1OP(=O)(O)O [18:3, linolenoyl-CoA] | -300 cal/(mol·K) | 1 | -96.2 ± 5.3 | −5.1±0.0 | -7.4 cal/(mol·K) | 1.2 ± 0.1 | -7.8 ± 1.3 | −5.6±0.1 | -7.7 cal/(mol·K) | 1.1 | -12.1 ± 1.3 | −9.7±0.1 | 189 ± 0.5 | 92.4 ± 10.7 | 0.0841 ± 0.0029 | –
7 | CC1=CC(=O)CC(C)(C)[C@@]1(O)/C=C/C(C)=C\C(=O)O [ABA, abscisic acid] | – | – | – | – | – | – | – | – | – | – | – | – | – | – | – | seeds germinated ([1]; Col-0 seeds): 60%; seeds germinated ([1]; acbp4acbp5acbp6 seeds): 19%; germination rate ([1]; acbp4acbp5 seeds): 40%; germination rate ([1]; acbp4acbp6 seeds): 32%; germination rate ([1]; acbp5acbp6 seeds): 33%; germination rate in comparison with Col-0 ([1]; all double and triple mutants, 0.4 μM ABA): lower germination rates
